Test results from patent US20250170106A1, “USE OF SU3327 IN PREPARATION OF MEDICAMENT FOR ENHANCING EFFICACY OF POLYMYXIN AGAINST BACTERIAL INFECTION” (XIAMEN HANLIXIN PHARMACEUTICAL CO., LTD., priority 2022, published 2025).

Key:
K. pneumoniae 1202 = experiment: In vitro bacterial growth (bactericidal) curve; type: cell-based, Klebsiella pneumoniae; settings: continuous treatment for 24 h, Polymyxin E 0.25 μg/mL, SU3327 10 μg/mL, alone or combined
Protocol: (§1) 6.0 g powdered beef extract, 1.5 g soluble starch, 17.5 g acid hydrolysate of casein, and 17.0 g agar were weighed, to which 900 mL distilled water was added, with the pH adjusted to 7.3, and the volume to 1000 mL. The mixture was subject to autoclave at 121° C. for 15 minutes, and then cooled to 50° C., poured into a sterile plate, and dried for later use.
(§2) Following culturing of K. pneumoniae 1202 and K. pneumoniae 1202-45-5 in BHI broth for 6-8 hours, the bacteria were diluted to a concentration of 10^6 colony count using a turbidimeter.
(§3) For K. pneumoniae 1202, drug treatment concentrations were set as follows: Polymyxin E (0.25 μg/mL), SU3327 (10 μg/mL), SU3327 (10 μg/mL)+Polymyxin E (0.25 μg/mL); the bacteria in control group were treated with a solvent, 0.1% DMSO. For K. pneumoniae 1202-45-5, drug treatment concentrations were set as follows: Polymyxin E (1 μg/mL), SU3327 (20 μg/mL), SU3327 (20 μg/mL)+Polymyxin E (1 μg/mL). 100 μL of a bacterial solution was applied on an agar plate at 1 h, 3 h, 6 h, 12 h and 24 h post drug treatment, respectively, and cultured for at least 16 h for a colony count.

K. pneumoniae 1202-45-5 [1] = experiment: In vitro bacterial growth (bactericidal) curve; type: cell-based, Klebsiella pneumoniae; settings: continuous treatment for 24 h, Polymyxin E 1 μg/mL, SU3327 20 μg/mL, alone or combined
Protocol: as §1, §2, §3

K. pneumoniae 1202-45-5 [2] = experiment: Thigh infection model of neutropenic BALB/c mice infected with drug resistant bacteria; type: in vivo; settings: 10 mg/kg body weight each drug, intraperitoneal, 24 hour post infection; for bacteria loading in the thigh of the mice: twice 8 h apart, K. pneumoniae 1202-45-5
Protocol: In order to avoid the influence of mice's own immunity on the experiments, all mice were administered in advance with cyclophosphamide twice, four days and one day before infection, respectively, 100 mg/kg intraperitoneal injection each time, resulting in neutropenia and immune deficiency in the mice. 24 female BALB/c mice (weighing about 20 g) aged 6-8 weeks old were prepared. K. pneumoniae 1202-45-5 in logarithmic phase was re-suspended with a PBS buffer to prepare a suspension at the concentration of 1×10^7 CFU/mL; in the mice, the total amount of bacteria injected into the thigh of each mouse was 1×10^6 CFUs in the end. Then they were randomly divided into model control group (solvent treatment group), Polymyxin E treatment group (10 mg/kg body weight), SU3327 treatment group (10 mg/kg body weight), and combined treatment group of SU3327 (10 mg/kg body weight)+Polymyxin E (10 mg/kg body weight) (6 mice in each group). The treatments are detailed as follows:
(§4) Solvent control treatment group: 0.1 mL of the suspension of K. pneumoniae 1202-45-5 was intramuscularly injected into a mouse in the thigh on the right side of its abdominal cavity; one hour later, the mouse was intraperitoneally injected with 200 μL of a PBS buffer.
as §4, with “Polymyxin E” for “Solvent control”, “solution of drug, Polymyxin E (1 mg/mL); the final dose was 10 mg/kg body weight;” for “PBS buffer.”
as §4, with “SU3327” for “Solvent control”, “solution of drug, SU3327 (1 mg/mL); the final dose was 10 mg/kg body weight; […]” for “PBS buffer.”

[3] = test system: Escherichia coli strain ATCC 25922 (E. coli 25922); experiment: MIC / checkerboard assay; type: cell-based; settings: for MIC after use in combination: Polymyxin E + SU3327 in combination, checkerboard; for MIC: drug alone
Text: (§5) The strains used in the tests, the strain Escherichia coli ATCC 25922 (E. coli 25922) and the strain Staphylococcus aureus ATCC 29213 (S. aureus 29213), were purchased from China Veterinary Culture Collection Center. Methicillin Resistant Staphylococcus Aureus USA300 (ATCC BAA-1717) was purchased from American Type Culture Collection. The strains used in the other experiments, the strains Escherichia coli B2 (E. coli B2), Escherichia coli GZP08-8 (E. coli GZP08-8), Klebsiella pneumoniae 1202 (K. pneumoniae 1202), Klebsiella pneumoniae 1202-45-5 (K. pneumoniae 1202-45-5), Salmonella 1-5 (Salmonella 1-5), and Shigella Y (Shigella Y) were all from National Center for Veterinary Drug Safety Evaluation of China Agricultural University, with Escherichia coli B2 (E. coli B2), Escherichia coli GZP08-8 (E. coli GZP08-8), Klebsiella pneumoniae 1202-45-5 (K. pneumoniae 1202-45-5), and Salmonella 1-5 (Salmonella 1-5) as polymyxin resistant strains containing MCR-1. Klebsiella pneumoniae 1202 (K. pneumoniae 1202) and Shigella Y (Shigella Y) were strains clinically sensitive to colistin.
(§6) The MIC of SU3327 administered alone was detected with dilution by factors. Subsequently, tests were performed with SU3327 alone, Polymyxin E (Colistin) alone, and in combination, respectively, in sterile, 96-well microplates according to checkerboard assays for the joint inhibitory activities against the above-mentioned strains, and further Fractional Inhibitory Concentration Index (FICI) was calculated. FICI of SU3327 and Polymyxin E=MIC (Polymyxin E in combination)/MIC (Polymyxin E)+MIC (SU3327 in combination)/MIC (SU3327 alone). If FICI≤0.5, synergy was identified; if 0.5<FICI≤1, an additive effect was identified; and if […], an irrelevant effect was identified.

[4] = test system: Klebsiella pneumoniae 1202 (K. pneumoniae 1202); experiment: MIC / checkerboard assay; type: cell-based; settings: for MIC after use in combination: Polymyxin E + SU3327 in combination, checkerboard; for MIC: drug alone
Text: as §5, §6

Shigella Y = experiment: MIC / checkerboard assay; type: cell-based; settings: for MIC after use in combination: Polymyxin E + SU3327 in combination, checkerboard
Text: as §5, §6

Salmonella 1-5 = experiment: MIC / checkerboard assay; type: cell-based; settings: for MIC after use in combination: Polymyxin E + SU3327 in combination, checkerboard
Text: as §5, §6

[5] = test system: Escherichia coli GZP08-8 (E. coli GZP08-8); experiment: MIC / checkerboard assay; type: cell-based; settings: for MIC after use in combination: Polymyxin E + SU3327 in combination, checkerboard; for MIC: drug alone
Text: as §5, §6

[6] = test system: Escherichia coli B2 (E. coli B2) containing MCR-1; experiment: MIC / checkerboard assay; type: cell-based; settings: for MIC after use in combination: Polymyxin E + SU3327 in combination, checkerboard; for MIC: drug alone
Text: as §5, §6

[7] = test system: Klebsiella pneumoniae 1202-45-5 (K. pneumoniae 1202-45-5); experiment: MIC / checkerboard assay; type: cell-based; settings: for MIC after use in combination: Polymyxin E + SU3327 in combination, checkerboard; for MIC: drug alone
Text: as §5, §6

[8] = test system: Staphylococcus Aureus USA300 (S. aureus USA300); experiment: MIC / checkerboard assay; type: cell-based; settings: for MIC after use in combination: Polymyxin E + SU3327 in combination, checkerboard; for MIC: drug alone
Text: as §5, §6

[9] = test system: Staphylococcus aureus strain ATCC 29213 (S. aureus 29213); experiment: MIC / checkerboard assay; type: cell-based; settings: for MIC after use in combination: Polymyxin E + SU3327 in combination, checkerboard; for MIC: drug alone
Text: as §5, §6

JNK and JIP = settings: read-out: IC50 (protein interaction between JNK and JIP); cited from earlier work
JNK = settings: substrate-competitive JNK inhibitor; cited from earlier work
Akt = settings: cited from earlier work
p38α = p38α (Homo sapiens, UniProt Q16539); settings: cited from earlier work
Chain of p38α (Q16539 whole entry): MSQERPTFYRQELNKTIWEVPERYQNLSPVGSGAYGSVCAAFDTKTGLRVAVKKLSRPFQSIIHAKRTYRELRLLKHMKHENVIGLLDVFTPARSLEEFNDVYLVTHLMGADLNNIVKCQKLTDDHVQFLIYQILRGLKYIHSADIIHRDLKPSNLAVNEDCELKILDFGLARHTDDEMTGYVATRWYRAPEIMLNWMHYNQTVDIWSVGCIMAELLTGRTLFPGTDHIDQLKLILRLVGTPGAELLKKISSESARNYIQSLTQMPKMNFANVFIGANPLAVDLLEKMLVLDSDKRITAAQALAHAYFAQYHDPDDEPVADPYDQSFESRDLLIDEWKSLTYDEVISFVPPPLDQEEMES

Molecule	bacterial colony counts (K. pneumoniae 1202) [Log 10 CFU/mL]	bacterial colony counts (K. pneumoniae 1202-45-5 [1]) [Log 10 CFU/mL]	bacteria loading in the thigh of the mice (K. pneumoniae 1202-45-5 [2]) [Log 10 CFU/mL]	MIC after use in combination [3] [µg/mL]	MIC [3] [µg/mL]	MIC after use in combination [4] [µg/mL]	MIC [4] [µg/mL]	MIC after use in combination (Shigella Y) [µg/mL]	MIC after use in combination (Salmonella 1-5) [µg/mL]	MIC after use in combination [5] [µg/mL]	MIC [5] [µg/mL]	MIC after use in combination [6] [µg/mL]	MIC [6] [µg/mL]	MIC after use in combination [7] [µg/mL]	MIC [7] [µg/mL]	MIC after use in combination [8] [µg/mL]	MIC [8]	MIC after use in combination [9] [µg/mL]	MIC [9]	further results
Polymyxin E	8.9	9.3	6.82	0.0625	0.125	0.0625	1	0.032	1	0.25	16	0.5	8	0.25	16	32	more than 128 μg/mL	64	more than 128 μg/mL	bacteria loading in the thigh compared with solvent control group (K. pneumoniae 1202-45-5 [2]): not significantly different
Nc1nnc(Sc2ncc([N+](=O)[O-])s2)s1 [SU3327]	8.35	6.65	6.55	5	10	2.5	20	2.5	2.5	2.5	10	2.5	20	5	20	1.25	5 µg/mL	2.5	5 µg/mL	IC50 (JNK and JIP): 239 nM; MIC (Shigella Y; drug alone): 5 µg/mL; MIC (Salmonella 1-5; drug alone): 20 µg/mL; IC50 (JNK): 700 nM; activity for Akt kinase (Akt): low activity; activity for p38α kinase (p38α): low activity
